Assay results: US7238716B2, “Alkanoic acid derivatives process for their production and use thereof” (Takeda Pharmaceuticals Company Limited, priority 2000, dated 2007)
Read-outs that look alike come from different tables or passages of the source.

Key:
[1] = system: KKA^y mice; test: Total cholesterol lowering action and plasma anti-arteriosclerosis index enhancing action in mice (Test Example 2); format: in vivo; settings: Mus musculus, po, 96 h, 0.005% in powdery diet, four days; for change in vivo at 0.005 %: percent increase of [(HDL cholesterol/total cholesterol)×100] vs non-administration group; for inhibition in vivo at 0.005 %: percent reduction of plasma total cholesterol level vs non-administration group
From the text: Test compounds were mixed in a powdery diet (CE-2, Japan Clea) the concentration of 0.01% (compounds of Examples 7, 26, 29 and 32) or 0.005% (compounds of Examples 1, 11, 15, 18, 24, 36, 37, 41, 48, 50, 51, 52, 58, 62, 79, 88, 91, 92, 93, 97, 107, 110, 129 and 130), and freely given to KKA^y mice (11 to 12 weeks old, 5 mice per group), a model of type-2 diabetes mellitus, for four days. During this period, water was given freely. Blood was sampled from orbital venous plexus and components were analyzed using the plasma separated from the blood. Total cholesterol levels were determined by using L type Wako Cholesterol (Wako Pure Chemical Industries, Ltd). Precipitation reagent for HDL cholesterol (Wako Pure Chemical Industries, Ltd.) was added to a part of the plasma to precipitate non-HDL lipoprotein, and cholesterol (HDL cholesterol) in the resulting supernatant was determined. The plasma anti-arteriosclerosis index [(HDL cholesterol/total cholesterol)×100] was calculated by using these cholesterol levels.
In the Table, “Total cholesterol lowering action (%)” represents the percent reduction (%) of total cholesterol level in the test compound administration group, when the total cholesterol level in the test compound non-administration group is taken as 100%. “Plasma anti-arteriosclerosis index-enhancing action (%)” represents the percent increase (%) of plasma anti-arteriosclerosis index in the test compound administration group, when the plasma anti-arteriosclerosis index in the test compound non-administration group is taken as 100%.

[2] = system: KKAY mice; test: Hypoglycemic and hypolipidemic actions in mice (Test Example 1); format: in vivo; settings: Mus musculus, po, 96 h, 0.005% in powdery diet, four days
Method in brief: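 Compounds given in powdered diet at 0.01% or 0.005% ad libitum for four days to KKAY mice (11–12 weeks old, 5 per group). Plasma glucose and triglyceride measured enzymatically from orbital blood; values are percent reduction relative to untreated group taken as 100%.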

[3] = percent reduction of plasma glucose level vs non-administration group, read-out: hypoglycemic action (%)
[4] = percent reduction of plasma triglyceride level vs non-administration group, read-out: hypolipidemic action (%)

SMILES | change in vivo at 0.005 % [1] [%] | inhibition in vivo at 0.005 % [1] [%] | inhibition in vivo at 0.005 % [2, 3] [%] | inhibition in vivo at 0.005 % [2, 4] [%]
Cc1oc(-c2ccco2)nc1COc1ccc(COc2ncccc2CC(=O)O)cc1 [Example 92, 2-[2-[4-[[2-(2-furyl)-5-methyl-4-oxazolyl]methoxy]benzyloxy]-3-pyridyl]acetic acid] | 23 | 15 | 58 | 83
Cc1sc(-c2ccccc2)nc1COc1ccc(COc2ncccc2CC(=O)O)cc1 [Example 93, 2-[2-[4-[(5-methyl-2-phenyl-4-thiazolyl)methoxy]benzyloxy]-3-pyridyl]acetic acid] | 17 | 16 | 45 | 53
Cc1oc(-c2ccccc2)nc1CCc1ccc(COc2ccccc2CC(=O)O)cc1 [Example 97, 2-[2-[4-[2-(5-methyl-2-phenyl-4-oxazolyl)ethyl]benzyloxy]phenyl]acetic acid] | 27 | 27 | 34 | 83
Cc1oc(-c2ccccc2)nc1CCc1noc(COc2ccccc2CC(=O)O)n1 [Example 107, 2-[2-[[3-[2-(5-methyl-2-phenyl-4-oxazolyl)ethyl]-1,2,4-oxadiazol-5-yl]methoxy]phenyl]acetic acid] | 9 | 13 | 40 | 39
Cc1ccc(CC(=O)O)c(OCc2ccc(OCc3nc(-c4ccccc4)oc3C)cc2)n1 [Example 110, 2-[6-methyl-2-[4-[(5-methyl-2-phenyl-4-oxazolyl)methoxy]benzyloxy]-3-pyridyl]acetic acid] | 24 | 21 | 51 | 74
Cc1oc(-c2ccccc2)nc1COc1cc(COc2ncccc2CC(=O)O)on1 [Example 129, 2-[2-[[3-[(5-methyl-2-phenyl-4-oxazolyl)methoxy]-5-isoxazolyl]methoxy]-3-pyridyl]acetic acid] | 25 | 14 | 45 | 93
Cc1oc(-c2ccc3ccccc3c2)nc1COc1ccc(COc2ncccc2CC(=O)O)cc1 [Example 130, 2-[2-[4-[5-methyl-2-(2-naphthyl)-4-oxazolylmethoxy]benzyloxy]-3-pyridyl]acetic acid] | 15 | 16 | 55 | 63
